Several values for one entry are separate records, joined by “and”; a condition that tells them apart may be missing. Equal entries are not always repeated. Entries after “also recorded” stand apart in the source; their conditions may differ. Where two headings read alike, the source gives them in different places.
Columns and labels:
[1] = test system: A375-hS100A4 tumor xenograft (TGase 2 +); assay: Ex vivo biodistribution in tumor-bearing mice (A375-hS100A4); parameters: species or system mice (Rj:NMRI-Foxn1 nu/nu)
Procedure: (§1) For biodistribution studies in tumor-bearing mice, a number of 5 × 10^6 A375-hS100A4 or MeWo cells were resuspended in 100 µL PBS and injected subcutaneously into nude mice (Rj:NMRI-Foxn1 nu/nu). Tumor growth was monitored three times per week using caliper measurements. The injection of [^18F]7b and subsequent steps were performed as described above.

[2] = Stability in blood in vitro; format: in vitro ADME; settings: incubation of the radiotracer in blood in vitro
[3] = Metabolic stability and arterial blood clearance in a normal Wistar rat; format: in vivo; settings: for c02: i.v. 5.27 nmol; for half-life / Vd / clearance / k el: male, iv, 5.27 nmol; for half-life / Vd / clearance: Wistar, rat; for clearance: plasma
Procedure: The following procedure was performed as recently published (Laube et al. [2020]). For assessing the in vivo stability, [^18F]7b (69.8 MBq corresponding to 5.27 nmol in 0.5 mL 0.9% NaCl with 5% ethanol (v/v)) was injected i.v. into a male Wistar rat (body weight 170 g) under desflurane anesthesia (10% desflurane in 30% oxygen/air, v/v). Using a catheter, blood samples from femoral artery were taken at 1, 3, 5, 10, 20, 30, 60, and 120 min p.i. The resulting loss of volume was compensated by i.v. injection of E153. Plasma was separated by centrifugation (3 min; 13,000 × g) followed by precipitation of plasma proteins with ice-cold Supersol (EtOH 20% (v/v), Triton X-100 0.5% (v/v), EDTA 5 mM, o-Phenanthroline 0.5 mM, Saponin 0.1% (w/v)). Clear supernatant separated by a second centrifugation step (3 min; 13,000 × g) was analyzed by radio-HPLC (Hewlett Packard Series 1100 equipped with a γ-detector (Raytest Ramona), Zorbax SB-C18, 300 Å, 4 μm, 250 × 9.4 mm (Agilent), eluent A, 0.1% (v/v) trifluoroacetic acid in H2O; eluent B, 0.1% (v/v) trifluoroacetic acid in CH3CN). Gradient elution was performed using 95% eluent A for 5 min, 95% eluent A to 95% eluent B in 10 min, 95% eluent B for 5 min, and 95% eluent B to 95% eluent A in 5 min, 3 mL/min, 50 °C. The clear supernatant was also analyzed by radio-TLC using reversed-phase TLC plates (ALUGRAM RP-18W/UV254 from Macherey–Nagel, Düren, Germany) with a mobile phase of 50% CH3CN in water containing 0.1% trifluoroacetic acid. For total protein precipitation at 5 and 60 min p.i., plasma samples were diluted with twice the volume of 15% trichloroacetic acid (TCA) in water instead of Supersol. Clear supernatant was separated by centrifugation (3 min; 13,000 × g) and analyzed as described above.
The measured activity concentrations (decay-corrected) in the blood samples of the Wistar rat were transformed into concentrations of 7b by taking the molar activity of [^18F]7b into account. These values were corrected by the fractions of intact [^18F]7b as analyzed by radio-HPLC or radio-TLC. These corrected concentrations were plotted against the time and analysis was performed by nonlinear regression according to two-phase decay as implemented in GraphPad Prism (Plateau was set to 0, Fig. 3B). However, for derivation of pharmacokinetic parameters, the corrected concentrations were converted to their log values and plotted against the time (semi-logarithmic plot, see inset in Fig. 3B). By linear regression of the data from 3 to 30 min, values for c02 (putative concentration of 7b at the beginning of the elimination phase) and kel (elimination rate constant) were derived. C02 was obtained as antilog of the intercept at the y-axis and kel represents the slope of the line. By knowing these two parameters as well as the applied dose (D = 5.27 nmol), the apparent volume of distribution (VD) and the plasma clearance (CL) was calculated using equations 7 and 8 (Freissmuth et al. [2016]).7 VD=D/c02 8 CL=kβ×VD

[4] = test system: MeWo tumor xenograft (TGase 2 −); assay: Ex vivo biodistribution in tumor-bearing mice (MeWo); parameters: species or system mice (Rj:NMRI-Foxn1 nu/nu)
Procedure: as §1

[5] = parameters: method as in Wodtke et al. [2021]; settings: in vitro; ref Wodtke et al. [2021]; cited from earlier work
Liver microsome assay = format: in vitro ADME, murine; settings: MLM, without prior oxidation (data not shown)
[6] = Ex vivo biodistribution in normal mice; parameters: species or system mice (Rj:NMRI-Foxn1 nu/nu); settings: i.v., control conditions
Procedure: For biodistribution studies in normal mice, [^18F]7b (0.57 ± 0.03 MBq corresponding to 27 ± 1 pmol in 0.2 mL 0.9% NaCl with a maximum of 10% ethanol (v/v)) was injected i.v. into nude mice (Rj:NMRI-Foxn1 nu/nu, Janvier Laboratories, Le Genest-Saint-Isle, France, body weight 27.7 ± 3.4 g) without (control conditions) or with co-injection of ketoconazole (3 mg/animal). A stock solution of ketoconazole (141 mM) was prepared in ethanol/Tween-80 (1:1, v/v) by shaking over night at 45 °C. This solution was diluted with 0.9% NaCl (1:4, v/v) prior injection. The animals were sacrificed at 5 and 60 min p.i. by CO2 inhalation and cervical dislocation. Organs and tissues of interest were excised, weighed, and radioactivity was determined using the Wizard™3’’ gamma counter. Activity in selected organs and tissues was expressed as % injected dose per weight (% ID/g) or % injected dose (% ID).

[7] = whole blood (arterial), radio-HPLC

C=CC(=O)NCCCCC(NC(=O)Cc1ccccc1)C(=O)N1CCN(c2cccc([18F])n2)CC1 (centres unmarked) [[^18F]7b]
tumor/muscle ratio [1]: 1.4
[^18F]7b remaining intact [2]: ≥ 90%
fraction of unmodified [^18F]7b in both blood components ([3]; 20 min p.i., plasma and erythrocytes): > 40%
residual intact [^18F]7b in intestinal content ([3]; 120 min (2 h) p.i., radio-HPLC): 7%
residual intact [^18F]7b in urine ([3]; 120 min (2 h) p.i., radio-HPLC): 8%
binding of ^18F-activity to plasma proteins ([3]; ex vivo plasma, protein precipitation): not protein-bound; also recorded: quite low
c02 ([3]; intact fraction by radio-HPLC): 22.4 nM
c02 ([3]; intact fraction by radio-TLC): 18.4 nM
terminal t1/2 (elimination half-life) ([3]; i.v., radio-HPLC): 17 min
half-life ([3]; arterial blood, i.v., radio-TLC, read-out: terminal t1/2): 16 min
Vd ([3]; arterial blood, radio-HPLC): 0.235 L
Vd ([3]; arterial blood, radio-TLC): 0.287 L and 1.69 L/kg
clearance ([3]; i.v., radio-HPLC data, read-out: plasma clearance (plasma CL)): 56 mL/min/kg
clearance ([3]; i.v., radio-HPLC, read-out: Plasma CL): 9.5 mL/min and 56 mL/min/kg
clearance ([3]; i.v., radio-TLC, read-out: Plasma CL): 12.6 mL/min and 74 mL/min/kg
half-life ([3]; whole blood (arterial), i.v., radio-HPLC, read-out: terminal t1/2 (elimination half-life)): 17.2 min
Vd [3, 7]: 1.38 L/kg
k el ([3]; arterial blood, radio-TLC): 0.000733 s⁻¹
k el [3, 7]: 0.000667 s⁻¹
^18F-activity in blood bound to erythrocytes ([3]; stable from 10 to 120 min p.i.): ≈ 30%
^18F-activity in blood located in the plasma fraction ([3]; stable from 10 to 120 min p.i.): ≈ 60%
tumor/muscle ratio [4]: 1.0
GSH reactivity [5]: low
susceptibility to glucuronidation (Liver microsome assay): not susceptible to glucuronidation
activity uptake kidneys ([6]; 5 min p.i.): 7.9 %ID/g
activity uptake liver ([6]; 5 min p.i.): 15.7 %ID/g
activity uptake femur ([6]; 60 min p.i.): 3.9 %ID/g
injected activity in intestinal content ([6]; 60 min p.i.): 50 %ID
injected activity in urine ([6]; 60 min p.i.): 19 %ID
